In publication doi:10.1101/2023.07.11.548539v1, “A side-by-side comparison of peptide-delivered antisense antibiotics employing different nucleotide mimics” (bioRxiv, 2023):
Oligonucleotides are written 5' to 3', each unit as a sugar letter and its base; * is a phosphorothioate linkage, no mark a phosphodiester; rarer units and linkages stand in square brackets, end groups in braces. Plain capitals give the bases only. d = 2'-deoxy (DNA)

Columns and labels:
[1] = tested on: Cy5 5'-labelled acpP target RNA (40 nt); assay: Electrophoretic mobility shift assay (EMSA); type: binding, Salmonella enterica; conditions: unconjugated ASO; ASO:RNA 1.25:1 and 2.5:1, 30 min RT, native 15 % PAGE
Procedure: The electrophoretic mobility shift (EMSA) assay was performed with a Cy5 5’-labelled RNA (purchased from Eurofins) encompassing the sequence spanning nucleotides −20 to +20 of acpP relative to the translation start codon. For annealing, TM buffer (10 mM Tris-HCl, 50 mM MgCl2) was used. First, 20 µM RNA was denatured by incubation at 95 °C for 5 min followed by placement on ice. Then 1 µL of RNA was added to PCR tubes containing 8 µL of water. To this 1 µL of ASOs at the indicated concentrations (25 µM or 50 µM) were added to adjust ASO:RNA ratios of 1.25:1 and 2.5:1. As untreated negative control water was added instead of ASO, while a scrambled PNA sequence served as sequence-unspecific negative control (Figure 2 and Figure S2). These mixtures were incubated for 30 min at room temperature (RT), followed by the addition of 10 µL 2x Gel Loading (GL) buffer for subsequent loading on native 15 % PAA RNA gel without urea (20 µL/sample; 6 µL of a 50 bp DNA marker + 14 µL 1x GL). The gel was run at 100-120 V for 2-3 h, concomitantly stained with ethidium bromide for 15 min and imaged on Geldoc (Isogen Life Science B.V., De Meern, the Netherlands).

Salmonella = assay: RNA-seq, global transcriptome (PCA); type: cell-based, Salmonella enterica serovar Typhimurium strain SL1344; conditions: 5 µM KFF-ASO conjugate or peptide, 15 min; two independent RNA-seq experiments
Procedure: RNA isolation was performed using previously published protocols ([30],[31]). Bacterial overnight cultures were diluted 1:100 in fresh MHB and grown to OD600 0.5. The cultures were diluted to approximately 10^6 cfu/ml in non-cation-adjusted MHB. Afterwards, an aliquot of the bacterial solution was transferred into 5 ml low-binding tubes (LABsolute) containing the ASOs solution (adjusted such that the final concentration was 5 μM for all tested compounds). As a negative control, cells were treated with the respective volume of sterile nuclease-free water, which was used as solvent for the ASOs. After incubating the samples for 15 min at 37 °C, RNAprotect Bacteria (Qiagen) was added according to the manufacturer’s instructions. Following a 10-min incubation, cells were pelleted at 4 °C and 21,100 × g for 20 min. The supernatant was discarded and pellets were either directly used or stored at –20°C (<1 day) for subsequent bacterial RNA isolation.
Total RNA was purified from bacterial pellets using the miRNeasy Mini kit (Qiagen) according to protocol #3 described in ([30]). Briefly, cells were resuspended in 0.5 mg/ml lysozyme (Roth) in TE buffer (pH 8.0) and incubated for 5 min. Afterwards, RLT buffer supplemented with β-mercaptoethanol, and ethanol were added according to the manufacturer’s instructions. After sample loading, column wash-steps were performed according to the manual. RNA concentration was measured with a NanoDrop spectrophotometer.
For transcriptomic analyses, RNA samples were processed and subjected to RNA-seq at Core Unit SysMed (University of Würzburg, Germany). Sequencing was run using a previously published protocol ([31]). […] Sequencing of pooled libraries, spiked with 5% PhiX control library, was performed at 10 million reads/sample in single-end mode with 75 nt read length on the NextSeq 500 platform (Illumina) using High output sequencing kits. […]
RNA-seq data analysis was performed similarly to our previous analysis of PNA activity in S. enterica ([30]). Briefly, adapters and low-quality bases (Phred quality score <10) of raw reads were trimmed using BBduk. Then the RNA-seq reads were mapped to the S. enterica serovar Typhimurium reference genome and the three plasmids pSLT SL1344, pCol1B9 SL1344, and pRSF1010 SL1344 ([37]) using BBMap (v38.18) and genomic features were assigned using the featureCounts command of the Subread (2.0.1) package ([38]). […]
Downstream RNA-seq analysis was performed using packages from the R/Bioconductor project. Raw read counts of all conditions were imported into edgeR (v3.34.1) ([40]) and analysed for differential expression. To filter low-count reads, features with less than 1.38 counts per million (CPM) in at least 5 libraries were ignored for further analysis. […]

[2] = tested on: fabF (3-oxoacyl-[acyl carrier protein] synthase 2) transcript; assay: RNA-seq, fabF transcript; type: cell-based, Salmonella enterica serovar Typhimurium strain SL1344; conditions: 5 µM KFF-ASO conjugate, 15 min
Procedure: RNA isolation was performed using previously published protocols ([30],[31]). Bacterial overnight cultures were diluted 1:100 in fresh MHB and grown to OD600 0.5. The cultures were diluted to approximately 10^6 cfu/ml in non-cation-adjusted MHB. Afterwards, an aliquot of the bacterial solution was transferred into 5 ml low-binding tubes (LABsolute) containing the ASOs solution (adjusted such that the final concentration was 5 μM for all tested compounds). As a negative control, cells were treated with the respective volume of sterile nuclease-free water, which was used as solvent for the ASOs. […]
Total RNA was purified from bacterial pellets using the miRNeasy Mini kit (Qiagen) according to protocol #3 described in ([30]). […] RNA concentration was measured with a NanoDrop spectrophotometer.
For transcriptomic analyses, RNA samples were processed and subjected to RNA-seq at Core Unit SysMed (University of Würzburg, Germany). […] Sequencing of pooled libraries, spiked with 5% PhiX control library, was performed at 10 million reads/sample in single-end mode with 75 nt read length on the NextSeq 500 platform (Illumina) using High output sequencing kits. […]
RNA-seq data analysis was performed similarly to our previous analysis of PNA activity in S. enterica ([30]). Briefly, adapters and low-quality bases (Phred quality score <10) of raw reads were trimmed using BBduk. […]

Row | Substance | Hybridization to target RNA (band shift) [1] | PCA cluster of the transcriptomic response (Salmonella) | fabF transcript level [2]
1 | DNA-PTO: 10mer phosphorothioate-modified DNA antisense oligomer, sequence CTCATACTCT, targeting acpP (antisense dC*dT*dC*dA*dT*dA*dC*dT*dC*dT) | did not interact with the target mRNA |  | 
2 | PMO: 10mer phosphorodiamidate morpholino antisense oligomer, sequence CTCATACTCT, targeting acpP (all phosphorodiamidate morpholino (PMO)) |  | cluster 3 | Reduction
3 | PNA: 10mer peptide nucleic acid antisense oligomer, sequence CTCATACTCT, targeting acpP (all peptide nucleic acid (PNA)) |  | cluster 1 | Reduction
4 | RNA-MOE: 10mer 2'-methoxyethylated RNA antisense oligomer, sequence CTCATACTCT, targeting acpP (all 2'-MOE, backbone and methylation of C not given here) |  | cluster 1 | 
5 | RNA-OMe: 10mer 2'-methylated RNA antisense oligomer, sequence CTCATACTCT, targeting acpP (all 2'-O-methyl, backbone and T or U not given here) |  | cluster 1 | 
